One assay has as its target T1, Serotonin 5HT2C (Homo sapiens, UniProt P28335).
T1 sequence (P28335 33-458): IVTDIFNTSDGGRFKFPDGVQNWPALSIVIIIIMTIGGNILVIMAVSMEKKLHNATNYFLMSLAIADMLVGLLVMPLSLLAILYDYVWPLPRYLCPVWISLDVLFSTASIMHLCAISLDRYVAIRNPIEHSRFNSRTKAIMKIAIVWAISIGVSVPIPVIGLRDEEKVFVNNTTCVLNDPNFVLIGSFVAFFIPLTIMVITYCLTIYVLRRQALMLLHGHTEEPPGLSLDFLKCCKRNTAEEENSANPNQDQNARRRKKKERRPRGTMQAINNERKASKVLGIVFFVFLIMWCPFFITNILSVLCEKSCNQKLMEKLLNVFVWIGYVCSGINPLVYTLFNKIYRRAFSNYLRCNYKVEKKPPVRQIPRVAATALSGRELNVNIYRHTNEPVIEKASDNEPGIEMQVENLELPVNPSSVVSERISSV
Nature of the assay: Off‐target panel: Serotonin 5HT2C. It counts as cell-based. As to the method:
(§1) GSK716 selectivity and PK properties were profiled in order to investigate the suitability of GSK716 for progression into in vivo studies and the potential for taking it forward as a clinical candidate for testing in humans. Since GSK716 results in loss of inhibitory activity of α1‐antitrypsin, the effect of the compound was assessed on other closely related serpins. […] Furthermore, there were no off‐target effects in a panel of assays considered predictive of known safety liabilities that precluded further development of GSK716 (Table EV1).

Assay [1] deals with Aryl hydrocarbon receptor (Homo sapiens, UniProt P35869). Put plainly: Off‐target panel: Aryl hydrocarbon receptor. It counts as cell-based. Conditions: Activator, read-out: Mean (PXC50). The procedure: as §1

Where only a bound is given, the exact number is not on record here.

Chain of Aryl hydrocarbon receptor (P35869 11-848, species assumed): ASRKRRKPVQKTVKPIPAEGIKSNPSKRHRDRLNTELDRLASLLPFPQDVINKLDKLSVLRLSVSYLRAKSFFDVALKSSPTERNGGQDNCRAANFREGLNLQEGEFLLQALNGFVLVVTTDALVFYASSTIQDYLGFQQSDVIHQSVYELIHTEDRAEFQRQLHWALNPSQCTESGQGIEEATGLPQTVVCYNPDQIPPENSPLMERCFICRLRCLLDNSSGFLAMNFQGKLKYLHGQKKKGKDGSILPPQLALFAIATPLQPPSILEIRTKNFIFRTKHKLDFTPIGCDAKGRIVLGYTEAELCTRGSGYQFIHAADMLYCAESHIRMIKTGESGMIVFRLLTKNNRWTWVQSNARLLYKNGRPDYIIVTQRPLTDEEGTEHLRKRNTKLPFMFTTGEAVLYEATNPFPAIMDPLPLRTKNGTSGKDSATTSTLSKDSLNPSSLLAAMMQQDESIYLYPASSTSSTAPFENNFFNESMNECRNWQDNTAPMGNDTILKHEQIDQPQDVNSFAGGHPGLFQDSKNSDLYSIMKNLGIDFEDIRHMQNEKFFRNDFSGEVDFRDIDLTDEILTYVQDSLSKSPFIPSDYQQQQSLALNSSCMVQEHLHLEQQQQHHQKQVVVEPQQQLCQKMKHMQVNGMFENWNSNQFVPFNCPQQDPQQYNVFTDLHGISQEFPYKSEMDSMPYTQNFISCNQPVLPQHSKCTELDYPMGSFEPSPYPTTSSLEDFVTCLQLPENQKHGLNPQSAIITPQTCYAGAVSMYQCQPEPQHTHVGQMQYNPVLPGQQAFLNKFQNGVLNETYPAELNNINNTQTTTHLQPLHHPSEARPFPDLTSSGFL

At Serotonin 5HT2C, `CCC[C@@H](NC(=O)c1cccc2c1CC(=O)N2)[C@@H](O)c1cccc(F)c1C` [GSK716] yielded an EC50 of more than 25.1 µM and an IC50 of more than 25.1 µM. The EC50 in assay [1] is more than 100 µM.

The IC50 is the concentration that inhibits the measured activity by half. A high value points to weaker potency.

For the origin of these results see paper PMC7933930, “Development of a small molecule that corrects misfolding and increases secretion of Z α1‐antitrypsin” (EMBO Molecular Medicine, 2021).
